Three compounds from US11708335B2, “Pyrimidine compounds useful as tyrosine kinase inhibitors” (STERNGREENE, INC., priority 2017, dated 2023) can be followed below.

The test system of one test is NCI-H1975 cells. As to the kind of experiment: In vitro proliferation (MTT) of NCI-H1975 cells. Format: cell-based. The note with it: FIG. 4; for pIC50: Homo sapiens, NCI-H1975 cells, EGFR(T790M) mutant, read-out: IC50, inhibition of NCI-H1975 cell proliferation; for activity against NCI-H1975 cells (proliferation): NCI-H1975 cells express the EGFR(T790M) mutant. The procedure:
(§1) Example 1: MTT Assay Protocol
(§2) An MTT assay can be performed to screen compounds for suitability as an EGFR inhibitor. A sample MTT assay protocol is as follows:
(§3) SKBR3, BT474, MDA-MB-231, MDA-MB-453, MDA-MB-468, Ml: 5000 cells/well, 5% FBS; NE91, NR6 and NR6 derived cell lines: 2500 cells/well, 5% FBS; H1975: 5000 cells/well, 1% FBS).
(§4) Add 50 μl medium with different concentrations of inhibitors. Incubate at 37° C., 5% CO2 for 72 hrs.
(§5) Replace the medium with 100 μl of fresh medium. Leave at 37° C., 5% CO2 for 4 hrs.
(§6) Add 25 μl of MIT (5 mg/ml stock solution, final concentration 1 mg/ml) to each well. Incubate the microtrays for 2 hours at 37° C.
(§7) Add 100 μl extraction buffer (50% DMF/20% SDS at pH 4.7) to each well.
(§8) Incubate overnight at 37° C. and OD measurements at 570 nm.
(§9) A MTT assay protocol is also described in Hansen et al., “Re-examination and further development of a precise and rapid dye method for measuring cell growth/cell kill,” J. Immunol. Methods 119:203-210 (1989).
(§10) Essays conducted as outlined in Examples 1 and 2.

The target in a further test is EGFR(C797S) (Homo sapiens, UniProt P00533, C797S). As to the kind of experiment: RBC HotSpot kinase assay, EGFR mutants, 10 μM ATP. In kind it is biochemical. The settings on record: FIG. 3. The procedure:
(§11) Example 2: RBC HotSpot Kinase Assay Protocol
(§12) An RBC HotSpot Kinase Assay can be performed to determine kinase activity data. A sample RBC HotSpot KinaseAssay protocol is as follows:
(§13) Reagent: Base Reaction buffer; 20 mM Hepes (pH 7.5), 10 mM MgCl2, 1 mM EGTA, 0.02% Brij35, 0.02 mg/ml BSA, 0.1 mM Na3VO4, 2 mM DTT, 1% DMSO
(§14) Add required cofactors individually to each kinase reaction.
(§15) Compound handling: Dissolve testing compounds in 100% DMSO to specific concentration. Serial dilution can be conducted using Integra Viaflo Assist in DMSO.
(§16) Prepare substrate in freshly prepared Reaction Buffer.
(§17) Deliver any required cofactors to the substrate solution above.
(§18) Deliver kinase into the substrate solution and gently mix.
(§19) Deliver compounds in 100% DMSO into the kinase reaction mixture by Acoustic technology (Echo550; nanoliter range) and incubate for 20 min at room temp.
(§20) Deliver ^33P-ATP (Specific activity 10 μCi/μl) into the reaction mixture to initiate the reaction.
(§21) Incubate for 2 hours at room temperature.
(§22) Detect radioactivity by filter-binding method.
(§23) Kinase activity data can be expressed as the percent remaining kinase activity in test samples compared to vehicle (dimethyl sulfoxide) reactions. IC50 values and curve fits can be obtained using Prism (GraphPad Software).
as §10

Test [1] has as its target EGFR(d746-750/T790M/C797 S) (Homo sapiens, UniProt P00533, C797S/DEL746-750/T790M). Put plainly: RBC HotSpot kinase assay, EGFR mutants, 10 μM ATP. Format: biochemical. The note with it: FIG. 3. As to the method:
as §11, §12, §13, §14, §15, §16, §17, §18, §19, §20, §21, §22, §23, §10

The target of the next test is EGFR(L858R/T790M/C797S) (Homo sapiens, UniProt P00533, C797S/L858R/T790M). Put plainly: RBC HotSpot kinase assay, EGFR mutants, 10 μM ATP. In kind it is biochemical. The settings on record: FIG. 3. As to the method:
as §11, §12, §13, §14, §15, §16, §17, §18, §19, §20, §21, §22, §23, §10

The subject of the next test is A431 cells. Put plainly: In vitro proliferation (MTT) of A431 cells. In kind it is cell-based. The note with it: A431 cells express the wild type EGFR; FIG. 4. As to the method: as §1, §2, §3, §4, §5, §6, §7, §8, §9, §10

Molecules are shown by their SMILES. pIC50: −log10 of the molar value.

`C=CC(=O)Nc1cc(Nc2nccc(-c3cn(C)c4ccccc34)n2)c(OC)cc1N(C)CCN(C)C` [AZD-9291, osimertinib, reference compound]: the pIC50 with NCI-H1975 cells is […].
Turning to `CCOc1cc2ncnc(Nc3ccc(F)c(Cl)c3)c2cc1NC(=O)/C=C/CN(C)CCCO` [SGI-078], in the test on NCI-H1975 cells, the “activity against NCI-H1975 cells (proliferation)” value (“activity against NCI-H1975 cells” below) was “better activity”. Besides, the “activity against EGFR(C797S)” value on EGFR(C797S) is “very strong activity”. Besides, the “activity on EGFR(d746-750/T790M/C797 S)” value in test [1] is listed as “good activity”. Also, the “activity on EGFR(L858R/T790M/C797S)” value at EGFR(L858R/T790M/C797S) was “good activity”. The “activity against A431 cells (proliferation)” value with A431 cells is listed as “weak activity”.
For `CCOc1cc2ncnc(Nc3ccc(F)c(Cl)c3)c2cc1NC(=O)/C=C/CN(C)CCCOC` [SGI-105], in the test with NCI-H1975 cells, the pIC50 was 6.74 and the “activity against NCI-H1975 cells” value was “better activity”. The “activity against NCI-H1975 cells” value in the test with NCI-H1975 cells (listed as SG1-105) was “more active than SGI-078”. The “activity against EGFR(C797S)” value at EGFR(C797S) is “very strong activity”. In addition, the “activity on EGFR(d746-750/T790M/C797 S)” value in test [1] is listed as “good activity”. At EGFR(L858R/T790M/C797S), the “activity on EGFR(L858R/T790M/C797S)” value is “good activity”. The “activity against A431 cells (proliferation)” value in the test with A431 cells was “weak activity”.
